Experimental data published in US10011571B2, “Preparation method for aromatic heterocyclic compound used as selective JAK3 and/or JAK1 kinase inhibitor and application of aromatic heterocyclic compound” (SHENZHEN CHIPSCREEN BIOSCIENCES, LTD., priority 2014, dated 2018).

Assays:
[1] = target: JAK1 (Homo sapiens (Human), UniProt P23458); test: Z'-LYTE enzymatic activity detection, JAK1; type: biochemical; details: test compound 300 nM; for inhibition at 0.3 µM: read-out: JAK1 % inhibitory rate @300 nM
Sequence of JAK1 (P23458 whole entry): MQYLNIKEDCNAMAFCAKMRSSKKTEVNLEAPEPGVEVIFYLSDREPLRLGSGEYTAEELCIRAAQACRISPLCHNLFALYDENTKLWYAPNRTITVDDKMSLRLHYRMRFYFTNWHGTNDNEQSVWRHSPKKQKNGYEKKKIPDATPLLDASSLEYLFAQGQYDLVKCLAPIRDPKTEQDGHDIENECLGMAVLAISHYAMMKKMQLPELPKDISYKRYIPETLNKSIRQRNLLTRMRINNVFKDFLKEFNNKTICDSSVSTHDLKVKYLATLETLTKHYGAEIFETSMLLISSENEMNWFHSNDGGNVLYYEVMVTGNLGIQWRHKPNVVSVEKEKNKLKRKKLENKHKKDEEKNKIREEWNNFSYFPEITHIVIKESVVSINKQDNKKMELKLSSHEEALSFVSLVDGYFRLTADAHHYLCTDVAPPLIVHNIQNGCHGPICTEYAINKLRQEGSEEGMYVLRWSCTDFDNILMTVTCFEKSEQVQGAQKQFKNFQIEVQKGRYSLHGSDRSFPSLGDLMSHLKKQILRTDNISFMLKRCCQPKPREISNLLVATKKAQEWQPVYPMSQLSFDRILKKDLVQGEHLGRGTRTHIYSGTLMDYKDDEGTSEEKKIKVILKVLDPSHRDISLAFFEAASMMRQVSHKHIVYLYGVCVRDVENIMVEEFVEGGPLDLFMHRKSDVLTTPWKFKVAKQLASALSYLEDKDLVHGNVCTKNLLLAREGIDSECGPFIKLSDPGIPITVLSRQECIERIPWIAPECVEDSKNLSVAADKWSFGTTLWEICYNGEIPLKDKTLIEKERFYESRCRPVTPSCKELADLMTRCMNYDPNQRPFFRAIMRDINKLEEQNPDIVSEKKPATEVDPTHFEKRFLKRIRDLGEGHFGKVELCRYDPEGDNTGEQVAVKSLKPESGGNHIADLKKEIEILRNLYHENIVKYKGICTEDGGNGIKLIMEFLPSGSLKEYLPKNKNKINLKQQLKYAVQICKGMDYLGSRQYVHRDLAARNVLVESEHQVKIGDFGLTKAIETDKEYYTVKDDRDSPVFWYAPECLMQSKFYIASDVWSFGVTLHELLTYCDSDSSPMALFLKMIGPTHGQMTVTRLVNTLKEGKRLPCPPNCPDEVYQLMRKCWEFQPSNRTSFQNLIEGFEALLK
Method: (§1) The basic principle of in vitro enzymatic activity assay is based on the difference between the intensities of fluorescence signals generated at different wavelengths (445 nm and 520 nm) from the phosphorylated substrate and non-phosphorylated substrate, in which the specific fluorescence-labeled substrate is phosphorylated by the kinase. When different test compounds are added, the inhibition of kinase activity is represented as the different degrees of substrate phosphorylation, and thus as the different intensities of fluorescence signal, based on which the inhibitory activity of the compound on the kinase can be calculated. Basic detection principle is illustrated in FIG. 1.
(§2) In an enzymatic inhibitory activity detection, GST-labeled human recombinant JAK kinases, including JAK1/PV4774, JAK2/PV4210, JAK3/PV3855, TYK2/PV4790 and their corresponding specific substrates, including Tyr6 (Z′-LYTE® Kinase Assay Kit-Tyrosine 6 Peptide, JAK1/PV4122), Tyr4 (Z′-LYTE® Kinase Assay Kit-Tyrosine 4 Peptide, JAK2/PV3193), Tyr4 (Z′-LYTE® Kinase Assay Kit-Tyrosine 4 Peptide, JAK3/PV3193), Tyr3 (Z′-LYTE® Kinase Assay Kit-[…], TYK2/PV3192) are used. In all tests, development reagent A (PV3297) was used as the test agent. All materials mentioned above were purchased from Invitrogen.
(§3) (1) Preparation: kinase reaction buffer (working solution) is prepared according to the instruction; a concentration gradient of the test compound is prepared by dilution using the kinase reaction buffer (the highest compound concentration is 10 μM for JAK1, JAK2, and TYK2 detection, and 1 μM for JAK3 detection, respectively).
(§4) (2) 10 μl of reaction system, comprising 2.5 μL test compound, 5 μL kinase reaction buffer and 2.5 μL ATP solution (provided by the kit), is mixed and reaction is performed at room temperature for 1 h.
(§5) (3) Controls, including a solvent control without the test compound, a negative control without ATP and a positive control with the phosphorylated substrate, are tested together with the detection. All tests are carried out in triplicate.
(§6) (4) After the enzymatic reaction, 5 μL pre-formulated development buffer is added, and reaction is performed at room temperature for 1 h. Subsequently, the reaction is terminated by adding 5 μL stop buffer.
(§7) (5) The fluorescence signal in each well is detected by an Ascent Fluoroskan FL reader (Thermo Labsystems) at an excitation wavelength of 400 nm, and emission wavelengths of 445 nm and 520 nm. The proportion of substrate phosphorylation is obtained by reference to the fluorescence signal intensity C445/F520.
(§8) (6) The enzymatic inhibitory rate of the test compound can be calculated based on the following equation: Inhibitory rate (%)=1−the proportion of substrate phosphorylation in the detection well/the proportion of substrate phosphorylation in the solvent control well. The half-inhibitory concentration (IC50) can be calculated using an IC50 calculator based on the inhibitory rates of phosphorylation for the test compounds at different concentration gradients.
(§9) Based on the above method, the compounds described herein are enzymatically evaluated in vitro for JAKs (the concentration of the test compound is 30 nM for JAK3 and JAK2 test, and 300 nM for JAK1 test) using Xeljanz (tofacitinib citrate) as the positive control.

[2] = test system: CTLL-2 cells; test: Cell growth activity assay (MTS), CTLL-2 cell model; type: cell-based, mouse; details: Mus musculus, CTLL-2, 300 nM, 24 h, read-out: CTLL-2 % growth rate @300 nM
Text: (§10) MTS assay is a routine method for cell toxicity detection. The basic principle is based on the capacity of dehydrogenase in the mitochondria of living cells to reduce a novel yellow […] MTS to formazan, so that the amount of living cells is proportional to the amount of formazan product by detecting the absorbance at 490 nm (OD), thereby speculating the amount of living cells according to the OD value, and understanding the capacity of the test compound to inhibit the growth of cells or to kill the cells.
In this experiment, mouse T-cell line CTLL-2 was used. The proliferation and growth of this cell line strongly depend on IL-2, and it is commonly used to evaluate the active titer of exogenous IL-2. By inhibiting the activity of kinase JAK1/3, the proliferation of CTLL-2 can be inhibited under in vitro culture. The activation and proliferation of T-cell is also important pathological characteristics for various immunological diseases. Thus, this model is also pathologically related.
By comparing the change of absorbance generated by the cells treated by the test compounds using MTS assay, the growth inhibitory activity of the test compounds on the model cells can be realized, and thereby potential inhibitory activity of the compounds on JAK1/3 pathway can be evaluated.
(§11) MTS is performed according to routine procedure in a 96-well plate.
(§12) The model cells are inoculated into each well of the 96-well plate at an appropriate concentration (about 20,000 cells/well). After 24 h, the test compounds are added at different concentration gradients (the highest concentration of 10 μM). A solvent control (DMSO) and a negative control are also performed at the same time. Each experiment is repeated for 3 times. The cells are detected after cultured for another 24 h.
CTLL-2 is a suspended cell. After incubation, 20 μL pre-formulated mixture of MTS and PMS (in a ratio of 20:1) is directly added to each well. After incubation at 37° C. for 2 h, it is then detected by a microplate reader (490 nm).
The effect of the test compound on cell growth is calculated by comparing the change of OD values between the test well and the solvent control well, after subtracting the background of the negative control. For the test compounds at different concentration gradients, the inhibitory rates on the growth of model cells and their half-growth inhibitory concentrations (GI50) are each calculated.
Based on the above method, cytological evaluation is performed to the compounds described herein (for the detection of CTLL-2 cell, the concentration of the test compound is 300 nM; for the detection of HeLa and HUVEC cell, the concentration of the test compound is […]).

[3] = target: JAK3 (Homo sapiens (Human), UniProt P52333); test: Z'-LYTE enzymatic activity detection, JAK3; type: biochemical; details: test compound 30 nM; for inhibition at 0.03 µM: read-out: JAK3 % inhibitory rate @30 nM
Sequence of JAK3 (P52333 whole entry): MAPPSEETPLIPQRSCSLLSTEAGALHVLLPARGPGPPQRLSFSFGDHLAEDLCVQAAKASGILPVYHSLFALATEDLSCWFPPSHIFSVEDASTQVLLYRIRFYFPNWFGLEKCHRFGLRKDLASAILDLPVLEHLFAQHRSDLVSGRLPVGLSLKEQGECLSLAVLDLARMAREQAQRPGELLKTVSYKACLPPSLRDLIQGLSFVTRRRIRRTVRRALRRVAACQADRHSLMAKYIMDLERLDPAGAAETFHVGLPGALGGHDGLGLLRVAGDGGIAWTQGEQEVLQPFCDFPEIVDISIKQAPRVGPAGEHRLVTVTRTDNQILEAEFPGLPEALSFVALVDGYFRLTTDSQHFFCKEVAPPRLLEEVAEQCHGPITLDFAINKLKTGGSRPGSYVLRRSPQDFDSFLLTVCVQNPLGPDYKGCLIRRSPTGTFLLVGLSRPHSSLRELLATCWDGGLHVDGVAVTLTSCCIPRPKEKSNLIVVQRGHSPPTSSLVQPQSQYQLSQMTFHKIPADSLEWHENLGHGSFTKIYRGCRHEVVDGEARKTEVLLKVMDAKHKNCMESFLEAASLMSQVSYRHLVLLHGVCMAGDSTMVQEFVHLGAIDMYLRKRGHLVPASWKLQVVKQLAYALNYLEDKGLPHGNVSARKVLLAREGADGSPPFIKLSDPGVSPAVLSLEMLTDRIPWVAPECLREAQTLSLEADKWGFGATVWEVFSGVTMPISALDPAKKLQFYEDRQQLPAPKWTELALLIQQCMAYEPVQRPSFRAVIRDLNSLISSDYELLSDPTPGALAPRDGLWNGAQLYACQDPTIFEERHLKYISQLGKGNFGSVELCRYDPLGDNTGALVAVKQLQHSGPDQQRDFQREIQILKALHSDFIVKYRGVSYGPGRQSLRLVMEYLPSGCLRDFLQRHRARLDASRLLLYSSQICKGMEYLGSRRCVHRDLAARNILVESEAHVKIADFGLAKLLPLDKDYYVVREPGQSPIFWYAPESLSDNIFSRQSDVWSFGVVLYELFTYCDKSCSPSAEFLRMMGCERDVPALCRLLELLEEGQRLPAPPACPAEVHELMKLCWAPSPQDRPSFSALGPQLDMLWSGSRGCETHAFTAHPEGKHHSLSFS
Method: as §1, §2, §3, §4, §5, §6, §7, §8, §9

[4] = test system: HeLa cells; test: Cell growth activity assay (MTS), HeLa cell model; type: cell-based, human; design: activity: dose or concentration left out as unconfirmed; details: Homo sapiens, HeLa, 72 h, read-out: HeLa % growth rate
Text: as §10
HeLa cell is a human cervical cancer cell line, and belongs to epithelial tumor cell line; HUVEC is a human umbilical vein endothelial cell, and belongs to primary endothelial cell; both types of cells express all subtypes except for JAK3.
The change of JAK kinase activity has no significant influence on other cell types except for the immune cells, and both cell models mentioned above are mainly used to evaluate whether there are any other kinase targets besides JAK kinases or there are nonselective cell toxicities.
In this experiment, a cultured cell model is incubated with the test compounds at different concentrations for a specific duration. The effect of the treatment by the test compound on the growth of cells is detected using MTS assay.
as §11
as §12, with “(about 5000” for “(about 20,000”, “highest final” for “highest”, “concentration is 40” for “concentration of 10”, “another 72” for “another 24”
After all culture medium is aspirated out of the well, 100 μL fresh medium and 20 μL pre-formulated mixture of MTS and PMS (in a ratio of 20:1) are added to each well. After incubation at 37° C. for 2 h, it is then detected by a microplate reader (490 nm).
The cell growth inhibitory rate and GI50 of the test compound are calculated as above.
Based on the above method, cytological evaluation is performed to the compounds described herein (for the detection of CTLL-2 cell, the concentration of the test compound is 300 nM; […]).

[5] = target: JAK2 (Homo sapiens (Human), UniProt O60674); test: Z'-LYTE enzymatic activity detection, JAK2; type: biochemical; details: test compound 30 nM; read-out: JAK2 % inhibitory rate @30 nM
Sequence of JAK2 (O60674 whole entry): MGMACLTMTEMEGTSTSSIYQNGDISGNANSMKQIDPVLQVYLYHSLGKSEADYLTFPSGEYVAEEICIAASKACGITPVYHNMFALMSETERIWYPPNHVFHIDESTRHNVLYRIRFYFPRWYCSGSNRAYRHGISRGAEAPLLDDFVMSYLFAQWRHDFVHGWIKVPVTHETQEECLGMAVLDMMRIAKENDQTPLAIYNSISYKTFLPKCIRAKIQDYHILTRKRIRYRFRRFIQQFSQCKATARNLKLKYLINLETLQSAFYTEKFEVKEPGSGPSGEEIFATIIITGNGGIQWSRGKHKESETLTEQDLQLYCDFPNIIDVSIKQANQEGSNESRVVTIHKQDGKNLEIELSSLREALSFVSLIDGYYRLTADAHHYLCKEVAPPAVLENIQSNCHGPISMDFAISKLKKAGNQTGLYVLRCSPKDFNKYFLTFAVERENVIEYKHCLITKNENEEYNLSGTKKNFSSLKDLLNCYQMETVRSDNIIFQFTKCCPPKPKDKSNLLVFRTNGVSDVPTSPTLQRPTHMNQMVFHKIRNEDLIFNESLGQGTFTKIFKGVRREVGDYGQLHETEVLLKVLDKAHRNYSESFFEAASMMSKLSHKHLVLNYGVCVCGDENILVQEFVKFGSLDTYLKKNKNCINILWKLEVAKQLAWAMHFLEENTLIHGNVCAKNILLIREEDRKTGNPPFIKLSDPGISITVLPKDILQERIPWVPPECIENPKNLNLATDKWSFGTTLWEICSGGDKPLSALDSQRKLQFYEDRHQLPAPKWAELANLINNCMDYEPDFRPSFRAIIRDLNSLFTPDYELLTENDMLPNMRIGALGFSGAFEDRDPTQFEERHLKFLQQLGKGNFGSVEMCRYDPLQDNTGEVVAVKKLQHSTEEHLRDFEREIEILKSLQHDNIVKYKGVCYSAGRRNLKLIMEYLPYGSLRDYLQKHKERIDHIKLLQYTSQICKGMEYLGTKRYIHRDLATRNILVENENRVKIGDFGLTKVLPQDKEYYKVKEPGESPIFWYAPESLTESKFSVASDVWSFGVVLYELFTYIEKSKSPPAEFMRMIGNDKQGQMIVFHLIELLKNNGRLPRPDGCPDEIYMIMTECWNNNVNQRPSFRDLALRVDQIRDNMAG
Method: as §1, §2, §3, §4, §5, §6, §7, §8, §9

SMILES	JAK1 RV (ratio between the inhibitory rate of the test compound and that of Xeljanz) [1]	inhibition at 0.3 µM [1]	JAK3 RV (ratio between the inhibitory rate of the test compound and that of Xeljanz) [3]	inhibition at 0.03 µM [3]	inhibition at 0.03 µM [5]	activity at 0.3 µM [2]	activity [4]
C=CC(=O)Nc1cc(Nc2ncc(Cl)c(NCCCNC(=O)c3ccc(C(F)(F)F)cc3)n2)ccc1F [Example 13, N-(3-(2-(3-acrylamido-4-fluoro-phenylamino)-5-chloropyrimidinyl-4-amino)propyl)-4-trifluoromethylbenzamide]	0.40	35%	0.96	79%	0%	63%	1%
C=CC(=O)N(C)c1cc(Nc2ncc(Cl)c(NCCCNC(=O)c3c(F)cc(F)cc3F)n2)ccc1F [Example 36, N-(3-(5-chloro-2-(4-fluoro-3-(N-methylacrylamido)phenylamino)pyrimidinyl-4-amino)propyl)-2,4,6-trifluorobenzamide]	0.25	42%	0.53	104%	0%	32%	38%
C=CC(=O)N(C)c1cc(Nc2ncc(Cl)c(NCCCNC(=O)c3ccc(OC)cc3)n2)ccc1F [Example 40, N-(3-(5-chloro-2-(4-fluoro-3-(N-methylacrylamido)phenylamino)pyrimidinyl-4-amino)propyl)-4-methoxylbenzamide]	0.02	4%	0.46	89%	0%	39%	82%
C=CC(=O)N(C)c1cc(Nc2ncc(Cl)c(NCCCNC(=O)c3ccc(C#N)nc3)n2)ccc1F [Example 44, N-(3-(5-chloro-2-(4-fluoro-3-(N-methylacrylamido)phenylamino)pyrimidinyl-4-amino)propyl)-6-cyanonicotinamide]	0.34	58%	0.58	113%	0%	29%	39%

Second part, led by results:

JAK1 RV (ratio between the inhibitory rate of the test compound and that of Xeljanz) [1]	inhibition at 0.3 µM [1]	JAK3 RV (ratio between the inhibitory rate of the test compound and that of Xeljanz) [3]	inhibition at 0.03 µM [3]	inhibition at 0.03 µM [5]	SMILES	activity at 0.3 µM [2]	activity [4]
	0%	0.56	109%	0%	C=CC(=O)N(C)c1cc(Nc2ncc(Cl)c(NCCCNC(=O)c3ccc(O)cc3)n2)ccc1F [Example 48, N-(3-(5-chloro-2-(4-fluoro-3-(N-methylacrylamido)phenylamino)pyrimidinyl-4-amino)propyl)-4-hydroxybenzamide]	50%	90%
0.08	14%	0.54	105%	0%	C=CC(=O)N(C)c1cc(Nc2ncc(Cl)c(NCCCNC(=O)c3ccc(C#N)cc3F)n2)ccc1F [Example 52, N-(3-(5-chloro-2-(4-fluoro-3-(N-methylacrylamido)phenylamino)pyrimidinyl-4-amino)propyl)-4-cyano-2-fluorobenzamide]	29%	64%
0.05	9%	0.59	116%	0%	C=CC(=O)N(C)c1cc(Nc2ncc(Cl)c(NCCCNC(=O)c3ccc(C#N)c(F)c3)n2)ccc1F [Example 56, N-(3-(5-chloro-2-(4-fluoro-3-(N-methylacrylamido)phenylamino)pyrimidinyl-4-amino)propyl)-4-cyano-3-fluorobenzamide]	30%	60%
0.01	1%	0.79	107%	0%	C=CC(=O)N(C)c1cc(Nc2ncc(C)c(NCCCNC(=O)c3ccc(C#N)cc3)n2)ccc1F [Example 58, 4-cyano-N-(3-(2-(4-fluoro-3-(N-methylacrylamido)phenylamino)-5-methylpyrimidinyl-4-amino)propyl)benzamide]	54%	88%
	0%	0.79	106%	0%	C=CC(=O)N(C)c1cc(Nc2ncc(F)c(NCCCNC(=O)c3ccc(C#N)cc3)n2)ccc1F [Example 60, 4-cyano-N-(3-(5-fluoro-2-(4-fluoro-3-(N-methylacrylamido)phenylamino)pyrimidinyl-4-amino)propyl)benzamide]	79%	94%
